PubChem BioAssay (NCI)
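How tested: cells in 96-well plates exposed to compound for 48 hours at five concentrations. TGI: concentration producing complete growth inhibition.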

The compounds below were run on SNB-75 CNS (assay: NCI tumour cell line growth inhibition, 48 h).

Row | Structure (SMILES) | TGI
1 | C=C(C)[C@@H]1CCC2=C[C@@H](OC2=O)[C@@H](C(=C)C)C2=CC(C(=O)O)=C(C1)O2 | > 100 µM
2 | Cc1ccc(S(=O)(=O)NC(=O)NC(CC(N)=O)C(=O)O)cc1 (stereo not drawn) | > 100 µM
3 | CSCCCN(CCCSC)CCCSC | > 100 µM
4 | COc1cc(-c2ccc(Br)[nH]2)[nH]c1C=NCC(C)C | 9.45 µM
5 | Cc1ccc(-c2n[nH]c(Cc3nc(-c4ccc(C)cc4)n[nH]3)n2)cc1 | > 100 µM
6 | c1ccc(C(C2=Nc3cccc4cccc(c34)N2)c2ccccc2)cc1 | 72.4 µM
7 | CN(CC(=O)N1CC(CCl)c2ccc([N+](=O)[O-])cc21)CC(=O)N1CC(CCl)c2ccc([N+](=O)[O-])cc21 (stereo not drawn) | > 100 µM
8 | COC(=O)NC(Nc1ccccn1)(C(F)(F)F)C(F)(F)F | > 100 µM
9 | CC(=O)Nc1oc(C)c(C)c1S(=O)(=O)c1ccc(Cl)cc1 | > 100 µM
10 | NC1CC(=O)c2cscc21 (stereo not drawn) | > 100 µM
11 | CC1=CC(=O)[C@@H](O)[C@]2(C)[C@H]3[C@@]4(O)OC[C@]35[C@H]([C@@H](C)[C@H]4O)[C@@H](OC(=O)C(C)(C)CO)C(=O)O[C@@H]5C[C@@H]12 | 2.11 µM

The compounds below were run on SW-620 colon (assay: NCI tumour cell line growth inhibition, 48 h).

Row | Structure (SMILES) | TGI
12 | COc1ccc(/C=c2/sc3n(c2=O)C(c2ccccc2)C2(O)CCCCC2N=3)cc1 (stereo not drawn) | > 12.5 µM
13 | CCCN(CCC)CCc1ccc(OC2=CCN(C)CC2)cc1 | > 100 µM
14 | O=C1OCN(c2ccccc2)C12CCN(Cc1ccccc1)CC2 | 49.8 µM
15 | Cc1ccc2c(c1)[nH]c(=S)n2C=C(C(N)=O)C(N)=O | > 100 µM
16 | Cn1c(=O)c2c3ccccc3n(C)c2n(C)c1=O | > 100 µM
17 | CN(C)CCNc1ccc([N+](=O)[O-])c2sc3ccccc3c(=O)c12 | > 100 µM
18 | COc1cc(NC(C)c2ccc3c(c2)OCCO3)cc(OC)c1OC (stereo not drawn) | > 100 µM
19 | CN1Cc2ccccc2S(=O)(=O)n2cccc2C1=O | > 100 µM
20 | Cc1cccc2oc3c(CC(=O)O)cccc3c(=O)c12 | > 100 µM
21 | S=c1nc2sc3c(c2c(Nc2ccc(Cl)cc2)[nH]1)CCCC3 | > 100 µM
22 | CCCCS(=O)(=O)CCC(N)P(=O)(O)O (stereo not drawn) | > 100 µM
23 | O=[N+]([O-])c1cccc2nc3ccccc3c(NCCCCNc3c4ccccc4nc4cccc([N+](=O)[O-])c34)c12 | 0.174 µM
24 | C/C=C/C(C#N)(/C=C/c1ccccc1)OP1(=O)OC(c2ccccc2)C(C)N1C (stereo not drawn) | 39.2 µM
25 | CN(C)CCCN1c2ccc([N+](=O)[O-])cc2CCc2cccc([N+](=O)[O-])c21 | 39.5 µM
26 | C=C(C)[C@@H]1CCC2=C[C@@H](OC2=O)[C@@H](C(=C)C)C2=CC(C(=O)O)=C(C1)O2 | > 100 µM
27 | S=C(N1CCN(c2ccc(Cl)c(Cl)c2)CC1)N1CCN(c2ccc(Cl)c(Cl)c2)CC1 | 33.8 µM
28 | Cc1ccc(S(=O)(=O)NC(=O)NC(CC(N)=O)C(=O)O)cc1 (stereo not drawn) | > 100 µM
29 | CSCCCN(CCCSC)CCCSC | > 100 µM
30 | Cc1ccc(-c2n[nH]c(Cc3nc(-c4ccc(C)cc4)n[nH]3)n2)cc1 | > 100 µM
31 | c1ccc(C(C2=Nc3cccc4cccc(c34)N2)c2ccccc2)cc1 | > 100 µM
32 | Cc1nnc2n1N=C(c1ccccc1)/C(=C/c1ccc(-c3ccc(Cl)cc3)o1)S2 | 47.7 µM
33 | CN(CC(=O)N1CC(CCl)c2ccc([N+](=O)[O-])cc21)CC(=O)N1CC(CCl)c2ccc([N+](=O)[O-])cc21 (stereo not drawn) | > 100 µM
34 | COC(=O)NC(Nc1ccccn1)(C(F)(F)F)C(F)(F)F | > 100 µM
35 | CC(=O)Nc1oc(C)c(C)c1S(=O)(=O)c1ccc(Cl)cc1 | > 100 µM
36 | COC1(c2ccc(Cl)cc2)SC=C(C)n2c1noc2=O (stereo not drawn) | > 100 µM
37 | NC1CC(=O)c2cscc21 (stereo not drawn) | 37.4 µM
38 | CC1=CC(=O)[C@@H](O)[C@]2(C)[C@H]3[C@@]4(O)OC[C@]35[C@H]([C@@H](C)[C@H]4O)[C@@H](OC(=O)C(C)(C)CO)C(=O)O[C@@H]5C[C@@H]12 | > 27.6 µM

These compounds were tested on T-47D breast (assay: NCI tumour cell line growth inhibition, 48 h).

Row | Structure (SMILES) | TGI
39 | COc1ccc(/C=c2/sc3n(c2=O)C(c2ccccc2)C2(O)CCCCC2N=3)cc1 (stereo not drawn) | > 12.5 µM
40 | CCCN(CCC)CCc1ccc(OC2=CCN(C)CC2)cc1 | > 100 µM
41 | O=C1OCN(c2ccccc2)C12CCN(Cc1ccccc1)CC2 | 63.8 µM
42 | Cc1ccc2c(c1)[nH]c(=S)n2C=C(C(N)=O)C(N)=O | > 100 µM
43 | Cn1c(=O)c2c3ccccc3n(C)c2n(C)c1=O | > 100 µM
44 | CN(C)CCNc1ccc([N+](=O)[O-])c2sc3ccccc3c(=O)c12 | > 100 µM
45 | CN1Cc2ccccc2S(=O)(=O)n2cccc2C1=O | > 100 µM
46 | CCCCS(=O)(=O)CCC(N)P(=O)(O)O (stereo not drawn) | > 100 µM
47 | O=[N+]([O-])c1cccc2nc3ccccc3c(NCCCCNc3c4ccccc4nc4cccc([N+](=O)[O-])c34)c12 | 1.04 µM
48 | C/C=C/C(C#N)(/C=C/c1ccccc1)OP1(=O)OC(c2ccccc2)C(C)N1C (stereo not drawn) | 68.9 µM
49 | CN(C)CCCN1c2ccc([N+](=O)[O-])cc2CCc2cccc([N+](=O)[O-])c21 | 37.2 µM
50 | C=C(C)[C@@H]1CCC2=C[C@@H](OC2=O)[C@@H](C(=C)C)C2=CC(C(=O)O)=C(C1)O2 | > 100 µM
51 | S=C(N1CCN(c2ccc(Cl)c(Cl)c2)CC1)N1CCN(c2ccc(Cl)c(Cl)c2)CC1 | 23.3 µM
52 | Cc1ccc(S(=O)(=O)NC(=O)NC(CC(N)=O)C(=O)O)cc1 (stereo not drawn) | > 100 µM
53 | CSCCCN(CCCSC)CCCSC | > 100 µM
54 | c1ccc(C(C2=Nc3cccc4cccc(c34)N2)c2ccccc2)cc1 | 37 µM
55 | Cc1nnc2n1N=C(c1ccccc1)/C(=C/c1ccc(-c3ccc(Cl)cc3)o1)S2 | 42.4 µM
56 | COC(=O)NC(Nc1ccccn1)(C(F)(F)F)C(F)(F)F | > 100 µM
57 | CC(=O)Nc1oc(C)c(C)c1S(=O)(=O)c1ccc(Cl)cc1 | > 100 µM
58 | NC1CC(=O)c2cscc21 (stereo not drawn) | 40.3 µM
